Here are results for six compounds from article PMC6804157, “Synthesis, Physicochemical Properties, and Biological Activities of 4-(S-Methyl-N-(2,2,2-Trifluoroacetyl)Sulfilimidoyl) Anthranilic Diamide” (Molecules, 2019).

The format of data set [1] is in vitro ADME. As to conditions: PAMPA. As for the experimental part: (§1) Because we believed that the physicochemical properties of newly-prepared diamides play important roles in their insecticidal activities, the studies were extended to investigate the bioavailability of organosulfur-based crop-protecting agents 14, 15a, 15b, 16a, and 16b in terms of plant systemic properties and membrane permeability. As references, their properties of chlorantraniliprole and cyantraniliprole were also measured.
(§2) [37] The physicochemical measurements for determinations of equilibrium solubility, log P, and PAMPA permeability were performed by Drug Discovery Platform Technology Team, KRICT, Korea.
(§3) Table S3. Physical properties of organosulfur-substituted anthranilic […]
(§4) Entry X Y Log P c,d Permeability e […]
(§5) aMethod for determination of equilibrium solubility: μSOL 25; bat 25 ℃ and pH 7.4; cUsing ACD / Labs T3 method (pH – metric); dfor graphs, please see the supporting information, eMethod for determination of […]

The nature of data set [2]: Equilibrium solubility (μSOL). It counts as physicochemical. As to conditions: 25 °C, thermodynamic from solid. As for the experimental part:
as §1, §2, §3, §4, §5

Data set [3] is described as follows: pH-metric log P (ACD/Labs T3 method). It counts as physicochemical. As for the experimental part: as §1
[39] For LogP, Using ACD/Labs T3 method (pH—metric), for graphs; please see the Supplementary materials.
as §3, §4, §5

Data set [4] relates to third instar larvae of Spodoptera litura. The data set is described as follows: whole plant or invertebrate. Particulars: for mortality at 50 ppm / mortality at 25 ppm: Spodoptera litura. It counts as in vivo. As for the experimental part: For the practical test, newly-prepared compounds 14–16 were evaluated for their insecticidal activities against the third instar larvae of Spodoptera litura according to the reported leaf-dip method.
[35] According to the literature 3a, 3b, and 3d methods, the insecticidal assays were performed by Kyung Nong Co. Ltd., Korea. In detail, please see the Supplementary materials.
Table S1 and S2: Larvicidal activity against Spodoptera (14 and 15a)
The lavicidal activities of synthesized compounds were evaluated by the leaf-dip procedure. 6 The aqueous solution of prepared compounds and chlorantraniliprole in acetone (H 2O : acetone = 95 : 5) were sprayed to a cabbage leave placed on moistened filter paper (disc, diameter 8.8 cm) in petri dishes. After allowing to dry, the dishes were infested with 10 Spodoptera litura (third-instar). After 1, 2, 3, and 4 days, percentage of mortalities was evaluated. The treatments were replicated three times. For negative control, larvicidal activities were 0 % at each time. Ref. is chlorantraniliprole as a positive control.
Table S1. Larvicidal activity depend on time against the 3 rd instar larvae of Spodoptera litura
Entry Compd Concentration Larvicidal activity (%) at 24 h
Entry Compd Concentration Larvicidal activity (%) at 48 h

Setting [5] is: third instar larvae of S. litura, 96 h, concentration of 14 and 15a 50 ppm.
Setting [6] is: read-out: Larvicidal Activity (%) at Time (h) 72 h, third instar larvae of S. litura, 72 h, concentration of 14 and 15a 50 ppm.
[7] abbreviates: read-out: Larvicidal Activity (%) at Time (h) 96 h, third instar larvae of S. litura, 96 h, concentration of 14 and 15a 50 ppm.

“And” between values parts separate entries of the source, which are not always exact repeats. Equal values may be shown once. Read-outs that look alike come from different tables or passages of the source.

In the case of `CNC(=O)c1cc(S(C)=NC(=O)C(F)(F)F)cc(C)c1NC(=O)c1cc(Br)nn1-c1ncccc1Cl` (stereo not shown) [Compound 15a, 3-Bromo-1-(3-chloropyridin-2-yl)-N-(2-methyl-4-(S-methyl-N-(2,2,2-trifluoroacetyl)sulfinimidoyl)-6-(methylcarbamoyl)phenyl)-1H-pyrazole-5-carboxamide], the Permeability entry in data set [1] is recorded as “- 4.5 ± 0.059”. Moreover, the solubility in data set [2] (pH 7.4, aqueous buffer) is 397 µM and 241 µg/mL. In data set [3], this compound came in with a logP of 3.74. In addition, the mortality at 50 ppm in data set [4] (24 h, read-out: Larvicidal activity (%) at 24 h, Average, 24 h, 50 ppm, average of three replicates) turned out to be 0%; in data set [4] (24 h, read-out: Larvicidal activity (%) at 24 h, replicate 1, 24 h, 50 ppm) it was 0%; in data set [4] (24 h, read-out: Larvicidal activity (%) at 24 h, replicate 2, 24 h, 50 ppm), 0%; in data set [4] (24 h, read-out: Larvicidal activity (%) at 24 h, replicate 3, 24 h, 50 ppm), 0%; in data set [4] (48 h, read-out: Larvicidal activity (%) at 48 h, Average, 48 h, 50 ppm, average of three replicates), 0%; in data set [4] (48 h, read-out: Larvicidal activity (%) at 48 h, replicate 1, 48 h, 50 ppm) it was 0%. Further, the mortality at 50 ppm in data set [4] (48 h, read-out: Larvicidal activity (%) at 48 h, replicate 2, 48 h, 50 ppm) stood at 0%; in data set [4] (48 h, read-out: Larvicidal activity (%) at 48 h, replicate 3, 48 h, 50 ppm) it was 0%; in data set [4] (72 h, read-out: Larvicidal Activity (%) at Time (h) 72 h, third instar larvae of S. litura, 72 h, concentration of 14 and 15a 50 ppm), 46.7%; in data set [4] (72 h, read-out: Larvicidal activity (%) at 72 h, replicate 1, 72 h, 50 ppm), 50%; in data set [4] (72 h, read-out: Larvicidal activity (%) at 72 h, replicate 2, 72 h, 50 ppm), 40%; in data set [4] (72 h, read-out: Larvicidal activity (%) at 72 h, replicate 3, 72 h, 50 ppm), 50%. The mortality at 50 ppm in data set [4] (96 h, read-out: Larvicidal Activity (%) at Time (h) 96 h, third instar larvae of S. litura, 96 h, concentration of 14 and 15a 50 ppm) is 53.3%; in data set [4] (96 h, read-out: Larvicidal activity (%) at 96 h, replicate 1, 96 h, 50 ppm) it was 50%; in data set [4] (96 h, read-out: Larvicidal activity (%) at 96 h, replicate 2, 96 h, 50 ppm), 50%; in data set [4] (96 h, read-out: Larvicidal activity (%) at 96 h, replicate 3, 96 h, 50 ppm) it was 60%. The “Eating Area (%) 96 h” value in data set [4] (setting [5]) is given as 5–10%.

As to `CNC(=O)c1cc(C#N)cc(C)c1NC(=O)c1cc(Br)nn1-c1ncccc1Cl` [Cyantraniliprole, cyantraniliprole, reference compound], the Permeability entry in data set [1] is recorded as “- 4.4 ± 0.077”. Further, in data set [2] (pH 7.4, aqueous buffer), the solubility is 378 µM and 179 µg/mL. The same compound gave a logP in data set [3] of 3.5.

For the compound `CNC(=O)c1cc([S+](C)[O-])cc(C)c1NC(=O)c1cc(Br)nn1-c1ncccc1Cl` (stereo not shown) [Compound 15b, 3-bromo-1-(3-chloropyridin-2-yl)-N-(2-methyl-6-(methylcarbamoyl)-4-(methylsulfinyl)phenyl)-1H-pyrazole-5-carboxamide], in data set [1], the Permeability entry is given as “- 4.8 ± 0.037”. Also, the solubility in data set [2] (pH 7.4, aqueous buffer) is 486 µM and 248 µg/mL. For the same compound, the logP in data set [3] worked out at 2.59. Moreover, the mortality in data set [4] (setting [6]) and in data set [4] (setting [7]) was 0% throughout. The “Eating Area (%) 96 h” value in data set [4] (setting [5]) is recorded as more than 30%.

For `CNC(=O)c1cc(S(C)(=O)=O)cc(C)c1NC(=O)c1cc(Br)nn1-c1ncccc1Cl` [Compound 16b, 3-Bromo-1-(3-chloropyridin-2-yl)-N-(2-methyl-6-(methylcarbamoyl)-4-(methylsulfonyl)phenyl)-1H-pyrazole-5-carboxamide], the Permeability result in data set [1] was “- 4.5 ± 0.030”. Also, the solubility in data set [2] (pH 7.4, aqueous buffer) is 124 µM and 65.6 µg/mL. In addition, the logP in data set [3] worked out at 3.04. The mortality in data set [4] (setting [6]) and in data set [4] (setting [7]) was 0% each time. Moreover, the “Eating Area (%) 96 h” value in data set [4] (setting [5]) is listed as more than 30%.

Regarding `CNC(=O)c1cc(S(C)(=O)=NC(=O)C(F)(F)F)cc(C)c1NC(=O)c1cc(Br)nn1-c1ncccc1Cl` (stereo not shown) [Compound 16a, 3-Bromo-1-(3-chloropyridin-2-yl)-N-(2-methyl-4-(S-methyl-N-(2,2,2-trifluoroacetyl)sulfonimidoyl)-6-(methylcarbamoyl)phenyl)-1H-pyrazole-5-carboxamide], in data set [1], the Permeability result is recorded as “- 4.7 ± 0.075”. Also, in data set [2] (pH 7.4, aqueous buffer), the solubility was 397 µM and 247 µg/mL. Besides, in data set [3], the logP stood at 4.95. For the same compound, the mortality in data set [4] (setting [6]) and in data set [4] (setting [7]) was 0% each time. The “Eating Area (%) 96 h” value in data set [4] (setting [5]) is reported as more than 30%.

With `CNC(=O)c1cc(Cl)cc(C)c1NC(=O)c1cc(Br)nn1-c1ncccc1Cl` [Chlorantraniliprole, chlorantraniliprole, reference compound], the Permeability result in data set [1] is “- 4.3 ± 0.046”. Besides, the solubility amounted to 21.5 ± 1.59 µM in data set [2] (aqueous buffer, μSOL, at 25 ℃ and pH 7.4, read-out: Solubility (Equilibrium)); 10.4 ± 0.771 µg/mL in data set [2] (pH 7.4, aqueous buffer). Besides, the logP in data set [3] (ACD/Labs T3 method (pH-metric), read-out: Log P) was 5.25. Further, in data set [4] (25 ppm), the “Eating area (%)” value is listed as 0–5%. The mortality at 25 ppm in data set [4] (24 h, read-out: Larvicidal activity (%) at 24 h, replicate 2, 24 h, 25 ppm) is 30%; in data set [4] (48 h, read-out: Larvicidal activity (%) at 48 h, Average, 48 h, 25 ppm, average of three replicates), 86.7%; in data set [4] (48 h, read-out: Larvicidal activity (%) at 48 h, replicate 1, 48 h, 25 ppm) it was 90%; in data set [4] (48 h, read-out: Larvicidal activity (%) at 48 h, replicate 2, 48 h, 25 ppm), 80%; in data set [4] (48 h, read-out: Larvicidal activity (%) at 48 h, replicate 3, 48 h, 25 ppm), 90%; in data set [4] (72 h, read-out: Larvicidal activity (%) at 72 h, Average, 72 h, 25 ppm, average of three replicates), 100%. The mortality at 25 ppm was found to be 100% in data set [4] (72 h, read-out: Larvicidal activity (%) at 72 h, replicate 1, 72 h, 25 ppm); 100% in data set [4] (72 h, read-out: Larvicidal activity (%) at 72 h, replicate 2, 72 h, 25 ppm); 100% in data set [4] (72 h, read-out: Larvicidal activity (%) at 72 h, replicate 3, 72 h, 25 ppm); 100% in data set [4] (96 h, read-out: Larvicidal activity (%) at 96 h, Average, 96 h, 25 ppm, average of three replicates); 100% in data set [4] (96 h, read-out: Larvicidal activity (%) at 96 h, replicate 1, 96 h, 25 ppm); 100% in data set [4] (96 h, read-out: Larvicidal activity (%) at 96 h, replicate 2, 96 h, 25 ppm). In addition, the mortality at 25 ppm in data set [4] (96 h, read-out: Larvicidal activity (%) at 96 h, replicate 3, 96 h, 25 ppm) is 100%. Also, the mortality came to 20% in data set [4] (read-out: Larvicidal activity (%) at 24 h, replicate 2, 24 h, 25 ppm, listed as Ref.); 66.7% in data set [4] (read-out: Larvicidal activity (%) at 48 h, Average, 48 h, 25 ppm, average of three replicates, listed as Ref.); 70% in data set [4] (read-out: Larvicidal activity (%) at 48 h, replicate 2, 48 h, 25 ppm, listed as Ref.); 100% in data set [4] (read-out: Larvicidal activity (%) at 72 h, Average, 72 h, 25 ppm, average of three replicates); 100% in data set [4] (read-out: Larvicidal activity (%) at 72 h, replicate 1, 72 h, 25 ppm); 100% in data set [4] (read-out: Larvicidal activity (%) at 72 h, replicate 2, 72 h, 25 ppm). Also, the mortality in data set [4] (read-out: Larvicidal activity (%) at 72 h, replicate 3, 72 h, 25 ppm) was found to be 100%; in data set [4] (read-out: Larvicidal activity (%) at 96 h, Average, 96 h, 25 ppm, average of three replicates), 100%; in data set [4] (read-out: Larvicidal activity (%) at 96 h, replicate 1, 96 h, 25 ppm), 100%; in data set [4] (read-out: Larvicidal activity (%) at 96 h, replicate 2, 96 h, 25 ppm) it was 100%; in data set [4] (read-out: Larvicidal activity (%) at 96 h, replicate 3, 96 h, 25 ppm), 100%.
